Data from patent US9307763B2, “Ligands for odor receptors and olfactory neurons” (The Regents of the University of California, priority 2010, dated 2016).

Target: T1, Or59b, ab2A (Drosophila melanogaster, UniProt Q9W1P8)
T1 construct: The 9 Ors tested are expressed in well-defined olfactory receptor neurons (ORNs) housed within the large and small basiconic sensilla; from tissue; host or cells: D. melanogaster antenna, ab2A olfactory receptor neuron (in vivo recording)
T1 sequence (Q9W1P8 1-398): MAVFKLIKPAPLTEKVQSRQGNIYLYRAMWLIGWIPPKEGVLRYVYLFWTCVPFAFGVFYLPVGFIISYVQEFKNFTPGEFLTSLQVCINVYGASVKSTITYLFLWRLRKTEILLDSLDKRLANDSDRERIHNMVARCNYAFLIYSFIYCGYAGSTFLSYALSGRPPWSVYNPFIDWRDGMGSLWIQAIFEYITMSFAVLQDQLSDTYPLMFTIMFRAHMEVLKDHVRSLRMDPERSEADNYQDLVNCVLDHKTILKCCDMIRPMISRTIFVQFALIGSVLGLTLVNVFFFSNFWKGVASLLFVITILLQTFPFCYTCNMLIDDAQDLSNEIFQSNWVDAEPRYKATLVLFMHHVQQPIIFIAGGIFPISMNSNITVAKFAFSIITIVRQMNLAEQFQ
T1 sequence (Q9VNB5 1-486 partner): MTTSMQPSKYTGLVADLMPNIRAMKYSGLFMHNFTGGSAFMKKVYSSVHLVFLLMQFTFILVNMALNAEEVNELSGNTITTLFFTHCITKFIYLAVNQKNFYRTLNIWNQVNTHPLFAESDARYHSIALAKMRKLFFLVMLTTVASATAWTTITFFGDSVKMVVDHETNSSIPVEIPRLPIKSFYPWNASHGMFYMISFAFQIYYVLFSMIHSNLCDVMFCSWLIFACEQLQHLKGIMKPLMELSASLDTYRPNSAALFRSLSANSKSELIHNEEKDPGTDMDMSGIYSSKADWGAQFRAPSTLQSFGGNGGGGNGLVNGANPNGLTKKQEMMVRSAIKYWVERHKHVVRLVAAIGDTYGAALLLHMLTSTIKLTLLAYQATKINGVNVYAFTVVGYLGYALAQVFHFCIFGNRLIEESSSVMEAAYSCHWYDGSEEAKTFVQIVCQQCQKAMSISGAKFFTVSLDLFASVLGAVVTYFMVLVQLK
Assay: single-sensillum electrophysiology
Type: in vivo
Settings: odorant at 10^-2
Procedure: The results of the in silico screen are provocative. However in order to verify whether these predictions were meaningful, functional evidence was obtained. In order to validate the success of the in silico predictions the responses of 9 Odor receptors using single-sensillum electrophysiology directly on the Drosophila melanogaster antenna were analyzed. For each Odor receptor several odorants were tested from the top 500 predicted hits. A sampling of ˜192 novel odorants were tested with ˜11-21 novel odorants tested for each receptor, which were scattered somewhat randomly within the top 500 predictions for each receptor, providing a relatively unbiased set of chemical structures.
To test identified compounds any number of biological assays can be used to measure ORN activity in the presence of a putative ligand/compounds. […] For the purpose of testing each of these volatile compounds the compounds were diluted to ˜10^−2 in paraffin oil or distilled water. The 9 Ors tested are expressed in well-defined olfactory receptor neurons (ORNs) housed within the large and small basiconic sensilla (ab1-ab7) on the antenna. A previously identified diagnostic panel of odorants was used to distinguish individual classes of sensilla (ab1-ab7) and therefore identified the sensilla that contained the target Or expressing ORN. […]

Which “activation of odor receptor (firing rate)” value does the source give for `CC(=O)OC(C)C` [isopropyl acetate] here?
Its value is > 250 spikes/sec.

Tested on: CO2 responsive neurons
Assay: not given
Settings: […]; averaged across the top 2 responders of the 4 species; cited from earlier work

With `OCCCCCO` [1,5-pentanediol] as the compound, how does the “Final Activity” value read?
The value was 0.

Which “Final Activity” value does the source give for `CCCCCCBr` [1-bromohexane] here?
Its value is 3.

Which “Final Activity” value does the source give for `CCCCCCCl` [1-chlorohexane] here?
Its value is 8.

For `C=CC(O)CCCC` (centres unmarked) [1-hepten-3-ol], which “Final Activity” value is on record?
The value was 0.

With `CCCCCCS` [1-hexanethiol] as the compound, how does the “Final Activity” value read?
Its value is 3.

With `CCCCCCI` [1-iodohexane] as the compound, how does the “Final Activity” value read?
Its value is 3.

For `C=CC(O)CCCCC` (centres unmarked) [1-octen-3-ol], which “Final Activity” value is on record?
Its value is −27.

For `CC(=O)C(C)=O` [2,3-butanedione], which “Final Activity” value is on record?
The value was −99.

With `CCC(=O)C(C)=O` [2,3-pentanedione] as the compound, how does the “Final Activity” value read?
The value was −55.

Which “Final Activity” value does the source give for `Cc1nc(C)c(C)s1` [2,4,5-trimethylthiazole] here?
Its value is 5.

With `Cc1cnc(C)cn1` [2,5-dimethylpyrazine] as the compound, how does the “Final Activity” value read?
Its value is 26.

For `Cc1ccc(C)s1` [2,5-dimethylthiophene], which “Final Activity” value is on record?
Its value is −9.

With `CCCNCCO` [2-(propylamino)-ethanol] as the compound, how does the “Final Activity” value read?
Its value is −39.

Which “Final Activity” value does the source give for `CC(=O)c1cccs1` [2-acetylthiophene] here?
The value was 31.

Which “Final Activity” value does the source give for `CCc1ncc(C)nc1C` [2-ethyl-3,5-dimethylpyrazine] here?
The value was 8.

With `CCCCCC(C)O` (centres unmarked) [2-heptanol] as the compound, how does the “Final Activity” value read?
Its value is −39.

Which “Final Activity” value does the source give for `CCCCC(C)O` (centres unmarked) [2-hexanol] here?
Its value is 2.

With `CCCCC(=O)C(C)C` [2-methyl-3-heptanone] as the compound, how does the “Final Activity” value read?
Its value is −26.

For `Cc1ccccc1O` [2-methylphenol], which “Final Activity” value is on record?
Its value is 24.

Which “Final Activity” value does the source give for `CCCCCCCC(=O)CC` [3-decanone] here?
Its value is 1.

Which “Final Activity” value does the source give for `CCCCC(O)CC` (centres unmarked) [3-heptanol] here?
Its value is −16.

Which “Final Activity” value does the source give for `CC=C(C)CC` [3-methyl-2-pentene] here?
Its value is 5.

Which “Final Activity” value does the source give for `CCCCCCC(=O)CC` [3-nonanone] here?
The value was 2.

For `CCCCCC(O)CC` (centres unmarked) [3-octanol], which “Final Activity” value is on record?
Its value is −14.

Which “Final Activity” value does the source give for `CSCCCC=O` [4-(methylthio)-1-butanal] here?
Its value is −15.

With `CCCC(=O)CCC` [4-heptanone] as the compound, how does the “Final Activity” value read?
Its value is 2.

With `CC(=O)CCO` [4-hydroxy-2-butanone] as the compound, how does the “Final Activity” value read?
The value was −11.

With `Cc1ccc(O)cc1` [4-methylphenol] as the compound, how does the “Final Activity” value read?
The value was 3.

With `CC(C)=CCCC(C)O` (centres unmarked) [6-methyl-5-hepten-2-ol] as the compound, how does the “Final Activity” value read?
The value was 0.

With `CCC/C=C/C=O` [(E)2-hexenal] as the compound, how does the “Final Activity” value read?
Its value is 0.

With `COc1ccccc1` [Anisole] as the compound, how does the “Final Activity” value read?
The value was 6.

With `O=Cc1ccccc1` [Benzaldehyde] as the compound, how does the “Final Activity” value read?
Its value is 6.

With `O=C(c1ccccc1)c1ccccc1` [Benzophenone] as the compound, how does the “Final Activity” value read?
Its value is 8.

With `C=C(C)C1CC=C(C)C(=O)C1` (centres unmarked) [Carvone] as the compound, how does the “Final Activity” value read?
Its value is 4.

Which “Final Activity” value does the source give for `CC(C)=CCCC(C)CC=O` (centres unmarked) [Citronellal] here?
Its value is 8.

Which “Final Activity” value does the source give for `O=C1CCCCC1` [Cyclohexanone] here?
Its value is 48.

Which “Final Activity” value does the source give for `CCOC(C)=O` [Ethyl Acetate] here?
The value was 8.

For `C=CCc1ccc(OC)c(OC)c1` [Eugenol Methyl Ether], which “Final Activity” value is on record?
The value was −9.

Which “Final Activity” value does the source give for `C=CCc1ccc(O)c(OC)c1` [Eugenol] here?
The value was 1.

Which “Final Activity” value does the source give for `CC12CCC(C1)C(C)(C)C2=O` (centres unmarked) [Fenchone] here?
Its value is −2.

Which “Final Activity” value does the source give for `CC(C)=CCC/C(C)=C/CO` [Geraniol] here?
Its value is 8.

For `c1ccc2[nH]ccc2c1` [Indole], which “Final Activity” value is on record?
The value was 21.

For `CC(=O)OCCC(C)C` [Isoamyl Acetate], which “Final Activity” value is on record?
Its value is −2.

With `CC(C)O` [Isopropyl Alcohol] as the compound, how does the “Final Activity” value read?
Its value is 3.

For `C=C(C)[C@H]1CC=C(C)CC1` [Limonene], which “Final Activity” value is on record?
Its value is −2.

For `CC1CCC(C(C)C)C(O)C1` (centres unmarked) [Menthol], which “Final Activity” value is on record?
The value was −2.

With `CO` [Methanol] as the compound, how does the “Final Activity” value read?
The value was −14.

Which “Final Activity” value does the source give for `CSCCC=O` [Methional] here?
Its value is 0.

With `CCCCCCCCCO` [Nonanol] as the compound, how does the “Final Activity” value read?
Its value is −12.

Which “Final Activity” value does the source give for `CC(=O)c1ccccc1` [Phenylethanone] here?
The value was 5.

For `Cc1ccc(C(C)C)c(O)c1` [Thymol], which “Final Activity” value is on record?
Its value is 15.

With `CC(=O)c1ccccc1` [acetophenone] as the compound, how does the “Final Activity” value read?
Its value is 15.

For `CCCC=O` [butanal], which “Final Activity” value is on record?
Its value is −85.

For `CCC(C)=O` [butanone], which “Final Activity” value is on record?
The value was −25.

With `CCCC(=O)O` [butyric acid] as the compound, how does the “Final Activity” value read?
The value was −94.

With `CCCC(=O)Cl` [butyryl chloride] as the compound, how does the “Final Activity” value read?
Its value is −39.

With `C/C=C\CCC` [cis-2-hexene] as the compound, how does the “Final Activity” value read?
Its value is 5.

Which “Final Activity” value does the source give for `CC/C=C\CCO` [cis-3-hexen-1-ol] here?
The value was 10.

For `CCCCC(=O)OCC` [ethyl valerate], which “Final Activity” value is on record?
The value was 5.

With `CC(=O)CF` [fluoroacetone] as the compound, how does the “Final Activity” value read?
Its value is 10.

Which “Final Activity” value does the source give for `CC1CCC(=O)O1` (centres unmarked) [gamma-valerolactone] here?
Its value is −5.

For `CCCCCCC=O` [heptanal], which “Final Activity” value is on record?
The value was −21.

With `CCCCCCC` [heptane] as the compound, how does the “Final Activity” value read?
Its value is −29.

Which “Final Activity” value does the source give for `CCCCCCC(=O)O` [heptanoic acid] here?
Its value is −14.

With `CCCCCCCO` [heptanol] as the compound, how does the “Final Activity” value read?
Its value is −38.

With `CCCCCCCOC(C)=O` [heptyl acetate] as the compound, how does the “Final Activity” value read?
The value was −8.

For `CCCCCC=O` [hexanal], which “Final Activity” value is on record?
The value was −32.

Which “Final Activity” value does the source give for `CCCCCC(=O)O` [hexanoic acid] here?
Its value is −16.

Which “Final Activity” value does the source give for `CCCCCCO` [hexanol] here?
Its value is −70.

For `CCCCCCOC(C)=O` [hexyl acetate], which “Final Activity” value is on record?
Its value is −12.

With `CCCCCC[SiH3]` [hexylsilane] as the compound, how does the “Final Activity” value read?
The value was 3.

For `COCC(C)=O` [methoxyacetone], which “Final Activity” value is on record?
Its value is 6.

Which “Final Activity” value does the source give for `COC(=O)C(C)=O` [methyl pyruvate] here?
The value was −100.

For `c1ccc2ccccc2c1` [naphthalene], which “Final Activity” value is on record?
The value was −14.

With `CCCCCCCC=O` [octanal] as the compound, how does the “Final Activity” value read?
The value was −20.

For `CCCCCCCC` [octane], which “Final Activity” value is on record?
The value was −34.

With `CCCCCCCC(=O)O` [octanoic acid] as the compound, how does the “Final Activity” value read?
Its value is −21.

Which “Final Activity” value does the source give for `CCCCCCCCO` [octanol] here?
Its value is −35.

With `CCCCCCCCOC(C)=O` [octyl acetate] as the compound, how does the “Final Activity” value read?
Its value is −15.

For `CCCCC=O` [pentanal], which “Final Activity” value is on record?
The value was −51.

For `CCCCC` [pentane], which “Final Activity” value is on record?
The value was −31.

Which “Final Activity” value does the source give for `CCCCC(=O)O` [pentanoic acid] here?
The value was −26.

With `CCCCCO` [pentanol] as the compound, how does the “Final Activity” value read?
Its value is −41.

With `CCCCCOC(C)=O` [pentyl acetate] as the compound, how does the “Final Activity” value read?
Its value is −15.

Which “Final Activity” value does the source give for `O=CCc1ccccc1` [phenylacetaldehyde] here?
The value was 3.

With `CCC=O` [propionaldehyde] as the compound, how does the “Final Activity” value read?
Its value is −68.

Which “Final Activity” value does the source give for `CCC(=O)O` [propionic acid] here?
The value was −32.

With `CCC(=O)Cl` [propionyl chloride] as the compound, how does the “Final Activity” value read?
Its value is −73.

With `c1cnccn1` [pyrazine] as the compound, how does the “Final Activity” value read?
The value was −8.

Which “Final Activity” value does the source give for `CC(=O)C(=O)O` [pyruvic acid] here?
The value was 2.

With `c1cscn1` [thiazole] as the compound, how does the “Final Activity” value read?
The value was 100.

Same assay, conditions: in vivo; cited from earlier work

For `CC(=O)O` [Acetic Acid], which “Final Activity” value is on record?
The value was −7.

For `CCO` [Ethanol], which “Final Activity” value is on record?
The value was −16.

With `CCCCOC(C)=O` [butyl acetate] as the compound, how does the “Final Activity” value read?
Its value is −28.

For `CCCCCC` [hexane], which “Final Activity” value is on record?
Its value is −25.

Which “Final Activity” value does the source give for `c1ccncc1` [pyridine] here?
The value was 99.

Which “Final Activity” value does the source give for butanol here?
Its value is −25.
